Each structure is given as a SMILES string. Counter-ions that a name gives are not always drawn. A value given as a limit tells only on which side of the number the result lay.

In this test the target is T1, BACE-2 (Homo sapiens, UniProt Q9Y5Z0).
T1 construct: Recombinant BACE-2 (extracellular domain, expressed in baculovirus and purified using standard methods); made in house
T1 sequence (Q9Y5Z0 63-473 limits assumed): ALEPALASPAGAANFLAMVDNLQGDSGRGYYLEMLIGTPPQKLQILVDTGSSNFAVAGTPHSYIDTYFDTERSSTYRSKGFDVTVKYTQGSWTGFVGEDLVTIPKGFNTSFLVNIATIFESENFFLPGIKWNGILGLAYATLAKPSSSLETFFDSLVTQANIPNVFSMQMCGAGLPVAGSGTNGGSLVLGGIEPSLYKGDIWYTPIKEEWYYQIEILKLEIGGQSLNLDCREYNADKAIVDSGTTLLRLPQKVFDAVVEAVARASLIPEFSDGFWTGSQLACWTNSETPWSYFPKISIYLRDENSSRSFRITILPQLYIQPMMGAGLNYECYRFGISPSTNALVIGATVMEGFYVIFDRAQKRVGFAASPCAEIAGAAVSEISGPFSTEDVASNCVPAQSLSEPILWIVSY
Kind of test: assay for inhibition of BACE-2. It is filed as biochemical.
For orientation: IC50 means the concentration that gives 50% inhibition. `Cc1cc(OC(F)F)cnc1C(=O)Nc1ccc(F)c([C@]2(C)COC(CF)(CF)C(N)=N2)c1` [Example 254, 5-Difluoromethoxy-3-methyl-pyridine-2-carboxylic acid [3-((R)-5-amino-6,6-bis-fluoromethyl-3-methyl-3,6-dihydro-2H-[1,4]oxazin-3-yl)-4-fluoro-phenyl]-amide] displayed an IC50 of 59 nM.
For `Cc1cc(Cl)cnc1C(=O)Nc1ccc(F)c(C2(C)COC(CF)(CF)C(N)=N2)c1` (stereo not shown) [Example 255, 5-Chloro-3-methyl-pyridine-2-carboxylic acid [3-(5-amino-6,6-bis-fluoromethyl-3-methyl-3,6-dihydro-2H-[1,4]oxazin-3-yl)-4-fluoro-phenyl]-amide], half-maximal inhibition (IC50) was put at 9 nM.
In turn, `Cc1cc(C#N)cnc1C(=O)Nc1ccc(F)c([C@]2(CF)COC(CF)(CF)C(N)=N2)c1` [Example 256, 5-Cyano-3-methyl-pyridine-2-carboxylic acid [3-((R)-5-amino-3,6,6-tris-fluoromethyl-3,6-dihydro-2H-[1,4]oxazin-3-yl)-4-fluoro-phenyl]-amide] came in with an IC50 of 18 nM.
Next, `C[C@@]1(c2cccc(NC(=O)c3ccc(Br)cn3)n2)COCC(N)=N1` [Example 257, 5-Bromo-pyridine-2-carboxylic acid [6-((R)-5-amino-3-methyl-3,6-dihydro-2H-[1,4]-oxazin-3-yl)-pyridin-2-yl]-amide]: 256 nM; `NC1=NC(CF)(c2cccc(NC(=O)c3ccc(Cl)cn3)n2)COC1` (stereo not shown) [Example 259, 5-{6-[(5-Chloro-pyridine-2-carbonyl)-amino]-pyridin-2-yl}-5-fluoromethyl-5,6-dihydro-2H-[1,4]oxazin-3-yl-ammonium trifluoro acetate]: 1390 nM; `NC1=NC(CF)(c2cccc(NC(=O)c3ccc(Br)cn3)n2)COC1` (stereo not shown) [Example 260]: 1660 nM.
On to `Cc1cc(C#N)cnc1C(=O)Nc1cccc(C2(CF)COCC(N)=N2)n1` (stereo not shown) [Example 261, 5-{6-[(5-Cyano-3-methyl-pyridine-2-carbonyl)-amino]-pyridin-2-yl}-5-fluoromethyl-5,6-dihydro-2H-[1,4]oxazin-3-yl-ammonium trifluoro acetate], for which the IC50 was found to be 1020 nM.
In the case of `[2H]c1nc(C(=O)Nc2cccc(C3(CF)COCC(N)=N3)n2)c(C([2H])([2H])[2H])c([2H])c1Cl` (stereo not shown) [Example 262, 5-{6-[(4,6-Dideutero-5-chloro-3-trideuteromethyl-pyridine-2-carbonyl)-amino]-pyridin-2-yl}-5-fluoromethyl-5,6-dihydro-2H-[1,4]oxazin-3-yl-ammonium trifluoro acetate] it was 242 nM.
Regarding `NC(=S)c1ccc(C(=O)Nc2cccc(C3(CF)COCC(N)=N3)n2)nc1` (stereo not shown) [Example 263], the IC50 came out at 8660 nM.
Next, `[2H]c1nc(C(=O)Nc2cc(C3(CF)COCC(N)=N3)ccn2)c(C([2H])([2H])[2H])c([2H])c1Cl` (stereo not shown) [Example 269, 5-{2-[(5-Chloro-4,6-dideutero-3-trideuteromethyl-pyridine-2-carbonyl)-amino]-pyridin-4-yl}-5-fluoromethyl-5,6-dihydro-2H-[1,4]oxazin-3-yl-ammonium acetate]: 1530 nM; `NC1=NC(CF)(c2ccnc(NC(=O)c3ccc(Cl)cn3)c2)COC1` (stereo not shown) [Example 270]: 4820 nM; `Cc1cc(C(N)=S)cnc1C(=O)Nc1cc(C2(CF)COCC(N)=N2)ccn1` (stereo not shown) [Example 271, 5-Fluoromethyl-5-{2-[(3-methyl-5-thiocarbamoyl-pyridine-2-carbonyl)-amino]-pyridin-4-yl}-5,6-dihydro-2H-[1,4]oxazin-3-yl-ammonium trifluoro-acetate]: greater than 10000 nM.
In the case of `NC1=NC(CF)(c2cc(NC(=O)c3ccc(Br)cn3)cnc2Cl)COC1` (stereo not shown) [Example 274, 5-Bromo-pyridine-2-carboxylic acid [5-(5-amino-3-fluoromethyl-3,6-dihydro-2H-[1,4]oxazin-3-yl)-6-chloro-pyridin-3-yl]-amide hydrochloride], the IC50 stood at 132 nM.

The values are drawn from patent publication US20140128385A1 (NOVARTIS AG, priority 2011, published 2014).
